From a melting point compilation (Tetko et al.; mined from patent text by program, amines drawn as free bases though some values may be those of a salt) come the findings set out here.

Usually melting point stands for the temperature, or range, at which the solid turns liquid. `CCn1cc(C(=O)O)c(=O)c2cc(F)c(N3CCN(C)C(c4cccs4)C3)cc21` (configuration not stated): the melting point was 238 to 240 °C. In the case of `COc1cc(OC)c(C(=O)CCCCCl)cc1N` it was 87 to 88 °C; in that of `COC(=O)C1C(=O)CCN(N2CCCCC2)C1=O` (configuration not stated), 157 to 159 °C. In the case of `COc1ccc(-c2cc(C(F)(F)F)n3ncc(-c4ccncc4)c3n2)cc1` it was 244 °C; in that of `Cc1nc2n(C)c(C)cn2c(=O)c1CCN1CCC(n2ccc3ccccc32)CC1`, 166 °C; in that of `COc1ccc(-c2c(NCCc3ccc(C(C)(C)C)cc3)c(=O)c2=O)cc1`, 258 to 260 °C.

Regarding `CC(C)NCC(O)COc1ccc2c(=O)cc(-c3ccc(O)c(O)c3)oc2c1` (configuration not stated), the melting point is 187 °C. In the case of `CC(C)OC(=O)C1C2CCC(C2)C1n1cc(F)c(=O)[nH]c1=O` (configuration not stated), the melting point fell in the range of 135 to 136 °C. With `N#Cc1cccc(NC(=O)c2ccn(-c3ccc(Cl)cc3)c2)c1N1CCC(N2CCOCC2)CC1` the figure was 220 °C.

`O=C(OCc1ccccc1)C1Cc2ccsc2CN1Cc1ccccc1` (configuration not stated): the melting point lay in the range of 135 to 140 °C. In the case of `O=S(=O)(Oc1ccc(Oc2ccc(OS(=O)(=O)c3ccccc3)cc2)cc1)c1ccccc1` it was 129 to 130 °C; in that of `CCOC(=O)N1C=CC(c2c(-c3ccccc3)nc3ccc(Cl)nn23)C=N1` (configuration not stated), 126 to 131 °C. In the case of `CN(C(=O)OCc1ccccc1)[C@@H](CCC(=O)O)C(=O)O`, the melting point fell in the range of 97 to 98 °C. Regarding `CC(=O)c1c(C)nc2c(OCc3c(Cl)ccc(S(=O)(=O)N4CCC[C@H]4C(=O)NCCCNC(=O)c4ccc(C#N)cc4)c3Cl)cccn12`, the melting point fell in the range of 100 to 102 °C.

`O=S(=O)(Cl)C=Cc1ccc(Cl)c(Cl)c1`: the melting point lay in the range of 91 to 96 °C. In the case of `Cc1cc(C(=O)O)n(-c2ccc(F)cc2)n1` it was 188 °C; in that of `CN1CCN(c2cccc3c2C[C@H](NC(=O)c2ccc(Cc4ccccc4)cc2)CC3)CC1`, 191 to 192 °C. In the case of `COc1ccc(-c2c(Cl)c(CNC3CC3)nc3sc4c(c23)CCN(Cc2ccccc2)C4)cc1OC` it was 131 to 132 °C; in that of `CCCCCCCCCCCCCCCCSc1cc(O)c(Sc2nnnn2-c2ccccc2)cc1O`, 129 to 131 °C. With `CCN1c2ncccc2C(N2CCCC2)=Nc2c(C)cc(C)nc21` the figure was 138 to 140 °C; with `COc1ccc(N(C(=O)CN2C(=O)C(Cc3nn(Cc4ccccc4)c4c3CCCC4)C(=O)N(c3ccccc3)c3ccccc32)C(C)C)cc1` (configuration not stated), 173 to 176 °C; with `COc1cc2c(cc1OC)CCCCC(C(=O)O)=C2`, 200 to 201 °C.

Regarding `COc1ccccc1CN1CN2CCCC1C2c1ccccc1` (configuration not stated), the melting point is 105 to 107 °C.

`O=S1(=O)c2cccc3cccc(c23)N1CCCN1CC=C(c2c[nH]c3ccc(F)cc23)CC1` gave a melting point of 224 °C. In the case of `CC(=O)N1CCN(CC(=O)Nc2ccc3[nH]c(=O)c4cccc5c4c3c2C5)CC1` it was 155 to 157 °C; in that of `CN1CCN(C2(CN(C)C(=O)c3ccc(Cl)c(Cl)c3)CCCCC2)CC1`, 126 to 129 °C. In the case of `COc1ccc(S(=O)(=O)N(C)CP(=O)(O)O)cc1N` it was 218 to 220 °C; in that of `CCN(C)c1nsc(NC(=O)NC)c1C(N)=O`, 165 to 168 °C. With `Cc1nc(NC(=O)c2ccc(OC(F)(F)F)cc2)sc1C(=O)NCc1ccccc1` the figure was 168 to 170 °C; with `CC1(C)Oc2ccc(Br)cc2C(n2ccccc2=O)=C1CN(O)C(N)=S`, 219 °C; with `CCOC(=O)COC(c1cccc(-c2nnc(Nc3ccc(Cl)c(Cl)c3)s2)c1)c1cccc(C(F)(F)F)c1` (configuration not stated), 135 to 136 °C. `CN(C)CC(=O)Nc1c(C(=O)c2ccccc2)[nH]c2cc(Cl)ccc12` yielded a melting point of 175 to 176 °C.

Compound `CN1CCC(CC(=O)N2c3ccccc3C(=O)Nc3cccc(Cl)c32)CC1` came in with a melting point of 112 °C.

Regarding `COc1ccc(-c2n[nH]c(N=CN(C)C)c2C#N)cc1`, the melting point fell in the range of 169 to 171 °C. With `O=C(Cl)c1cc(OCc2ccccc2)cc(OCc2ccccc2)c1` the figure was 73 to 74 °C. With `CNC(=O)c1ccccc1Nc1nc(Nc2ccc(OC)c3c2N(C)C(=O)CCC3)ncc1Cl` the figure was 165 to 167 °C; with `C=C(C)Cn1c(N)cc(=O)[nH]c1=O`, 267 to 269 °C; with `COc1c(Cl)cc(F)c(I)c1F`, 62 to 64 °C.

`CC(C)(C)c1cc(Nc2cccc(-c3nnn[nH]3)c2)cc(C(C)(C)C)c1O` had a melting point of 231 to 233 °C. With `Cc1cccc(-c2c(CBr)n(C)c(=O)n(C)c2=O)c1` the figure was 136 to 137 °C. Compound `Brc1ccccc1OCc1ccc2ccccc2n1` came in with a melting point of 115 to 117 °C. For `COC(=O)C[C@H]1C[C@@H](CCc2c(-c3ccc(F)cc3)c(-c3ccc(F)cc3)cn2C(C)C)OC(C)(C)O1`, the melting point lay within 55 to 57 °C. `CC(C)c1cccc(C(C)C)c1N=C(Nc1c(C(C)C)cccc1C(C)C)ON=C1CCCCC1`: the melting point lay within 150 to 152 °C. In the case of `C#C[C@@]1(O)[C@@H](COC(=O)c2ccc(Cl)cc2)OC(O)[C@@H]1O` (some centres not stated) it was 116 to 118 °C; in that of `N=C(Nc1cc(Cl)cc(NC(=O)C=Cc2ccccc2Cl)c1)c1ccc(NCc2ccccn2)cc1`, 119 to 122 °C. With `CS(=O)(=O)N(c1ccc(C#CCCN2CC=C(c3ccccc3)CC2)nc1)S(C)(=O)=O` the figure was 168 to 170 °C. With `CC(C)C(=O)NC(=O)c1cccc(-c2noc(-c3ccccc3F)n2)c1` the figure was 183 to 184 °C; with `COC(=O)c1ccc(N(C)C)cc1C(=O)OC`, 54 to 57 °C.

As to `CCCCCCCCCCCCCCCCCCOc1cc(C(N)=O)cc([N+](=O)[O-])c1`, the melting point was 117 to 120 °C. `Cc1ccc(S(=O)(=O)Oc2ccc(F)cc2Cl)cc1` registered a melting point of 92 to 94 °C. In the case of `CSc1ncc(C=O)c(N)n1`, the melting point was in the range of 184 to 186 °C. With `CCN(Cc1ccc(Cl)cc1Cl)C(=O)n1oc(C)c(Cl)c1=O` the figure was 80.5 to 81.5 °C; with `Oc1ccc(N2CCN(CCC3C=Cc4ccccc43)CC2)cc1` (configuration not stated), 228 °C. In the case of `CC(=O)NC[C@H]1CN(c2ccc(-n3cc(-c4ccc(C)cc4)cn3)c(F)c2)C(=O)O1` it was 222 to 223 °C; in that of `C=CC(=O)N1CCc2cc(OC)c(OC)cc2C12CCC(C(=O)OCC)(C(=O)OCC)CC2`, 131 to 134 °C. In the case of `ClCc1cc(I)cc(I)c1I` it was 97 to 98 °C. In the case of `O=S(=O)(Nc1cccc(CCOCc2csc(-c3ccc(Cl)cc3)n2)c1)C(F)(F)F`, the melting point is 114 to 116 °C. With `CN(C)S(=O)(=O)NCc1ccc(C(c2cc(F)ccc2F)S(=O)(=O)c2ccc(Cl)cc2)nc1` (configuration not stated) the figure was 177 to 178 °C; with `O=c1c2c(c1=O)N(CCCP(=O)(O)O)CCCN2`, 244 to 248 °C. In the case of `COc1ccc(N(C)c2nc(N)nc3[nH]c4ccccc4c23)cc1` it was 234 °C. In turn, `Cc1ccccc1-c1ccc(C(=O)N2Cc3cccn3Cc3ccccc32)cc1C` displayed a melting point of 145 to 148 °C.

Turning to `Cc1nnc(-c2ccc3occ(-c4ccc(SCF)cc4)c3c2)o1`, the melting point is 143 to 144 °C. `COc1ccc(C)cc1-c1ccc(S(=O)(=O)N2c3ccccc3CC2C(=O)NCCOc2ccc(CC(=O)O)cc2)cc1` (configuration not stated) had a melting point of 85 to 88 °C. In the case of `CCOC(=O)C1=C(N)Nc2ncnc(OC(C)C)c2C1c1ccccc1OC` (configuration not stated) it was 222 to 223 °C.

For `CC1(C)COC(C(=O)/C=C/[C@@H]2[C@H]3CC(=O)O[C@H]3C[C@H]2OC(=O)c2ccccc2)OC1`, the melting point turned out to be 141 °C. In the case of `COC(=O)Cc1cnc(-c2ccccc2)n1Cc1ccc([N+](=O)[O-])cc1` it was 113 to 116 °C; in that of `CC(C)(C)OC(=O)Nc1cc(N2CCOCC2)cc(C(F)(F)F)c1`, 146 to 148 °C; in that of `Fc1cc(Cl)c(OC(F)F)cc1-n1nc2c(c1Cl)CCCC2`, 83 to 85 °C.

Consider `Cc1csc2ccc3[nH]c4c(c3c12)CN(C(C)C)CC4`, for which the melting point lay in the range of 199 to 203 °C. In the case of `COC(=O)C(C)NC(=O)C1CCCN1C(=O)OCc1ccccc1` (configuration not stated) it was 45 to 49 °C; in that of `CCCCc1nc2c(N)nc3ccccc3c2n1CCCNC(=O)N1CCOCC1`, 193 to 195 °C; in that of `O=c1c2c(Cc3ccc(C(F)(F)F)cc3)n[nH]c2c2cccnc2n1-c1cccc(C(F)(F)F)c1`, 145 to 148 °C. With `CCCc1c(O)ccc(C(=O)OC)c1O` the figure was 66 to 68 °C; with `COC(=O)C1=C(C)NC(C)=C(C(=O)OC)C1C`, 155 to 156 °C. As to `CC(=O)Oc1cc(OC(C)=O)c2ccccc2c1OC(C)=O`, the melting point lay within 136 to 137 °C. In the case of `O=C(NCc1ccc(OC(F)(F)F)cc1)Nc1cccc2[nH]ccc12` it was 177 °C; in that of `CC(C)Cn1c(CNC(=O)OC(C)(C)C)c(-c2ccccc2)c2cc(OCc3ccccc3)ccc2c1=O`, 141 to 142 °C; in that of `Clc1cc(Cl)c2c(c1)COCO2`, 111 to 112 °C.

Turning to `CC(C)(C)c1cc(CO)n(Cc2ccc(C(F)(F)F)cc2Cl)n1`, the melting point lay within 115 to 117 °C.

`Nc1nc(NCCCCCCNS(=O)(=O)c2cccc3ccccc23)nc2ccccc12` had a melting point of 98 to 101 °C. Consider `Cn1cc(Cl)c2cc(C=O)ccc21`, for which the melting point came to 109 °C.

For `Cc1ccc(-c2cc(OCC3CO3)c3ccccc3n2)cc1` (racemic), the melting point was in the range of 100 to 102 °C. In the case of `CCOc1cc(O)c2cc(F)c(F)c(F)c2n1` it was 171 °C; in that of `CN(C)CCOc1ccc(Nc2nccc(-c3c[nH]nc3-c3ccc(OCc4ccccc4)cc3)n2)cc1`, 87 to 91 °C; in that of `CCOC(=NS(=O)(=O)c1ccccc1)N1Cc2ccccc2-c2ccccc2C1`, 146 to 150 °C. With `CCOCCn1cc2c(=O)[nH]c(=O)[nH]c2n1` the figure was greater than 300 °C. With `CS(=O)(=O)OCCC1c2ccccc2C(=O)N1c1ccccc1` (configuration not stated) the figure was 100 to 101 °C.
